Literature values in US20110224245A1, “Treatment Of Neurological Disorders Using Huperzine” (President and Fellows of Harvard College, priority 2008, published 2011).

tested on: 6 Hz seizures; settings: established antiepileptic drugs; cited from earlier work

| SMILES | efficacy in the 6 Hz psychomotor seizure model |
| --- | --- |
| Nc1nnc(-c2cccc(Cl)c2Cl)c(N)n1 [lamotrigine] | limited efficacy |
| O=C1NC(=O)C(c2ccccc2)(c2ccccc2)N1 [phenyloin] | limited efficacy |
| NC(=O)N1c2ccccc2C=Cc2ccccc21 [carbamazepine] | limited efficacy |
| CC1(C)O[C@@H]2[C@@H](CO[C@@]3(COS(N)(=O)=O)OC(C)(C)O[C@@H]23)O1 [topiramate] | limited efficacy |
